# Source: ChEMBL document CHEMBL5038569, “Targeting RECQL5 Functions, by a Small Molecule, Selectively Kills Breast Cancer in Vitro and in Vivo” (J Med Chem, 2021)
# Calls of active or inactive are those of the source. The calls are words filed in the database; no cut-off is given here.
# Legend:
# MCF7 [1] = assay: Induction of cell sensitization to cisplatin in human MCF-7 cells assessed as reduction in colony formation at 5 uM measured after 8 to 10 days by clonogenic survival assay; type: functional, cell-based; settings: time 8-10 day
# MCF7 [2] = assay: Stabilization of RECQL5-RAD51 complex in human MCF7 cells expressing wild type RECQL5 assessed as increase in accumulation of nucleus-bound RECQL5 and RAD51 at 20 uM measured after 4 to 24 hrs by Western blot analysis; type: cell-based; settings: time 4-24 hrs
# MCF7 [3] = assay: Induction of apoptosis in human MCF7 cells expressing wild type RECQL5 assessed as fold increase in cell death at 20 uM measured after 72 hrs by propidium iodide/RNase A staining based flow cytometric analysis relative to control; type: functional
# MCF7 [4] = assay: Induction of mitotic catastrophe phenotype in human MCF7 cells assessed as micronucleus formation at 20 uM pretreated with cisplatin for 8 hrs followed by compound addition and measured after 24 hrs by immunofluorescence microscopic analysis; type: functional, cell-based
# MCF7 [5] = assay: Cytotoxicity against human MCF7 cells with shRNA-mediated RECQL1 depletion assessed as reduction in cell viability at 6 to 25 uM measured after 8 to 10 days by clonogenic survival assay; type: functional, cell-based; settings: dose 6-25 µM, time 8-10 day
# MCF7 [6] = assay: Induction of DNA damage in RECQL5 knock out human MCF7 cells assessed as double strand breaks by measuring increase in phosphorylation of CHK2 at T68 residue at 20 uM measured up to 24 hrs by Western blot analysis; type: functional, cell-based; settings: time hrs <=24
# MCF7 [7] = assay: Induction of DNA damage in human MCF7 cells expressing wild type RECQL5 assessed as double strand breaks by measuring increase in phosphorylation of ATM at S1981 residue at 20 uM measured up to 24 hrs by Western blot analysis; type: functional, cell-based; settings: time hrs <=24
# [8] = Chronic toxicity in […] mouse assessed as change in behavior at 100 mg/kg, po administered as single dose via gavage measured for 30 days; type: organism-based; settings: in vivo, 720 h, time 30 day
# [9] = biological target: T1, DNA repair protein RAD51 homolog 1 (Homo sapiens) (UniProt Q06609); assay: Stabilization of RAD51 foci in human cisplatin-resistant MCF7 cells assessed as increase in RAD51 positive cells at 20 uM pretreated with cisplatin for 8 hrs followed by compound addition and measured after 24 hrs by immunofluorescence microscopic analysis; type: cell-based
# T1 sequence (whole entry): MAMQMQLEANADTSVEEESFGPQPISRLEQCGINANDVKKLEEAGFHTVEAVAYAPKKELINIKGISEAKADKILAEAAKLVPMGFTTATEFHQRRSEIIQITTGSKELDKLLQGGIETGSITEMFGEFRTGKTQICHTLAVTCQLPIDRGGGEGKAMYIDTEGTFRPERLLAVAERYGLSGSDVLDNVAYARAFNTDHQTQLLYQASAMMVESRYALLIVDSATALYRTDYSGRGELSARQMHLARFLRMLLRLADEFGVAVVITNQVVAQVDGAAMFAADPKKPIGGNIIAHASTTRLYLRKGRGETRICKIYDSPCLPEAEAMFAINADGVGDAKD
# MCF7 [10] = assay: Antitumor activity against human MCF7 cells expressing wild type RECQL5 xenografted in nude mouse assessed as reduction in tumor growth at 50 mg/kg, po administered as single dose via gavage measured after 30 days; type: functional, organism-based; settings: time 30.0 day, TDE = time-dependent effect
# MDA-MB-231 [11] = assay: Cytotoxicity against ER/PR/HER2-negative human MDA-MB-231 cells expressing wild type RECQL5 and p53 mutant assessed as reduction in colony formation measured after 8 to 10 days by clonogenic survival assay; type: functional, cell-based; settings: time 8-10 day
# MCF7 [12] = assay: Stabilization of RECQL5-RAD51 complex in human MCF7 cells expressing wild type RECQL5 assessed as increase in accumulation of chromatin-bound RECQL5 and RAD51 at 20 uM measured after 4 to 24 hrs by Western blot analysis; type: cell-based; settings: time 4-24 hrs, TDE = time-dependent effect
# T47D [13] = assay: Induction of DNA damage in RECQL5 knock out human T47D cells assessed as double strand breaks by measuring increase in gamma-H2AX foci formation incubated for 24 hrs by immunofluorescence microscopic analysis; type: functional, cell-based
# MDA-MB-231 [14] = assay: Induction of apoptosis in RECQL5 depleted human MDA-MB-231 cells assessed as cell death measured after 72 hrs by propidium iodide/RNase A staining based flow cytometric analysis; type: functional
# [15] = Selectivity ratio of IC20 for cytotoxicity against human MCF-10A cells expressing RECQL5 to IC20 for cytotoxicity against human MCF7 cells expressing RECQL5; type: toxicity, cell-based
# MCF7 [16] = assay: Cytotoxicity against human MCF7 cells with shRNA-mediated WRN depletion assessed as reduction in cell viability at 6 to 25 uM measured after 8 to 10 days by clonogenic survival assay; type: functional, cell-based; settings: dose 6-25 µM, time 8-10 day
# Homo sapiens = organism: Homo sapiens; assay: Inhibition of His-tagged human RECQL5 binding to [gamma 32P] labeled DNA substrate assessed as RECQL5-DNA complex formation at 10 uM preincubated for 30 mins followed by substrate addition and measured after 15 mins by gel electrophoresis and autoradiography method; settings: time 45.0 min
# [17] = Inhibition of ds-DNA dependent human RECQL5 ATPase activity measured after 60 mins by luciferin-based multiplate reader method
# MCF7 [18] = assay: Induction of mitotic catastrophe phenotype in human MCF7 cells assessed as nuclear bridge formation at 20 uM pretreated with cisplatin for 8 hrs followed by compound addition and measured after 24 hrs by immunofluorescence microscopic analysis; type: functional, cell-based
# U2OS [19] = assay: Induction of apoptosis in RECQL5 depleted human U2OS cells assessed as cell death measured after 72 hrs by propidium iodide/RNase A staining based flow cytometric analysis; type: functional
# U2OS [20] = assay: Cytotoxicity against human U2OS cells expressing wild type RECQL5 and p53 mutant assessed as reduction in colony formation measured after 8 to 10 days by clonogenic survival assay; type: functional, cell-based; settings: time 8-10 day
# [21] = Toxicity in […] mouse assessed as fold change in alkaline phosphatase level at 100 mg/kg, po administered as single dose via gavage measured after 30 days relative to control; type: organism-based; settings: in vivo, 720 h, time 30 day
# MCF7 [22] = assay: Cytotoxicity against RECQL5 knock out human MCF7 cells expressing […] assessed as reduction in colony formation at 10 uM measured after 8 to 10 days by clonogenic survival assay; type: functional, cell-based; settings: time 8-10 day
# [23] = Chronic toxicity in […] mouse assessed as effect on food/water uptake at 100 mg/kg, po administered as single dose via gavage measured for 30 days; type: organism-based; settings: in vivo, 720 h, time 30 day
# MCF7 [24] = assay: Induction of DNA damage in RECQL5 knock out human MCF7 cells assessed as double strand breaks by measuring increase in gamma-H2AX foci formation incubated for 24 hrs by immunofluorescence microscopic analysis; type: functional, cell-based
# [25] = Selectivity ratio of IC20 for cytotoxicity against RECQL5 knock out human MCF7 cells to IC20 for cytotoxicity against human MCF7 cells expressing RECQL5-WT; type: functional
# T47D [26] = assay: Stabilization of RECQL5-RAD51 complex in RECQL5 knock out human T47D cells expressing wild type RECQL5-FLAG assessed as increase in RAD51-RECQL5-FLAG pull down at 20 uM measured after 8 hrs by coimmunoprecipitation assay; type: cell-based
# [27] = Drug concentration in nude mouse serum at 50 mg/kg, po administered alternative days via gavage and measured upto 4 hrs by HPLC analysis; type: ADME, organism-based; settings: read-out: Drug uptake
smiles,measurement,setting,value
O=C(Nc1cc(C(F)(F)F)cc(C(F)(F)F)c1)N[C@@H](c1ccccc1)c1nnc(SCc2ccccc2)o1,Activity,MCF7 [1],Active
same,Activity,MCF7 [2],inactive
same,fold change (FC),MCF7 [3],2.5
same,Activity,MCF7 [4],Active
same,Activity,MCF7 [5],Active
same,Activity,MCF7 [6],inactive
same,Activity,MCF7 [7],Active
same,Activity,[8],Non-Toxic
same,Activity,[9],Active
same,Activity,MCF7 [10],Tde
same,Activity,MDA-MB-231 [11],Active
same,Activity,MCF7 [12],Tde
same,Activity,T47D [13],inactive
same,Activity,MDA-MB-231 [14],inactive
same,selectivity ratio,[15],4
same,Activity,MCF7 [16],Active
same,inhibition,Homo sapiens,inactive
same,IC50,[17],23.9 µM
same,Activity,MCF7 [18],Active
same,Activity,U2OS [19],inactive
same,Activity,U2OS [20],Active
same,fold change (FC),[21],0.97
same,Activity,MCF7 [22],inactive
same,Activity,[23],Non-Toxic
same,Activity,MCF7 [24],inactive
same,selectivity ratio,[25],2.7
same,Activity,T47D [26],Active
same,concentration at 4 h,[27],14.8 µM
